Our source for the T/C values is PubChem BioAssay AID328 (DTP/NCI, 2004).

This test deals with BDF1 mice, P388 leukemia ip, median survival T/C. Nature of the test: NCI In Vivo Anticancer Drug Screen. Data for tumor model P388 Leukemia (intraperitoneal) in B6D2F1 (BDF1) mice. The note with it: endpoint: median survival time, higher = longer survival. A digest of the protocol: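 Mice carrying the transplantable tumour receive compound or vehicle. Survival is followed in each arm, and the treated measure is divided by the vehicle measure.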

Setting [1] is: dose: 25.0 mg/kg/injection, schedule: Q01DX009 (ip), vehicle: saline.
Where [2] appears, read: dose: 50.0 mg/kg/injection, schedule: Q01DX009 (ip), vehicle: saline.
[3] abbreviates: dose: 100.0 mg/kg/injection, schedule: Q01DX009 (ip), vehicle: saline.
The mark [4] stands for this setting: dose: 100.0 mg/kg/injection, schedule: Q01DX009 (ip), vehicle: saline with Tween-80.
Setting [5] is: dose: 200.0 mg/kg/injection, schedule: Q01DX009 (ip), vehicle: saline with Tween-80.

Values joined by “and” are separate entries in the source; they are usually repeats but may differ in a detail not shown here. Equal values may be shown once. Toxic doses and inconclusive results are not listed.

As to `COc1cc([C@@H]2c3cc4c(cc3[C@@H](OC3OC5COC(C)OC5C(O)C3O)[C@H]3COC(=O)[C@H]23)OCO4)cc(OC)c1O` (some centres undefined), the T/C is 225 % of control (dose: 7.48 mg/kg/injection, schedule: Q04DX003 (ip), vehicle: other); 533 % of control (dose: 11.8 mg/kg/injection, schedule: Q04DX003 (ip), vehicle: Klucel (hydroxypropylcellulose) (HPC)); 170 % of control (dose: 11.8 mg/kg/injection, schedule: Q04DX003 (ip), vehicle: saline); 287 % of control (dose: 12.0 mg/kg/injection, schedule: Q04DX003 (ip), vehicle: saline); 266 % of control (dose: 12.5 mg/kg/injection, schedule: Q04DX003 (ip), vehicle: other); 535 % of control (dose: 17.8 mg/kg/injection, schedule: Q04DX003 (ip), vehicle: Klucel (hydroxypropylcellulose) (HPC)). Also, the T/C by setting is: (dose: 17.8 mg/kg/injection, schedule: Q04DX003 (ip), vehicle: saline) 200 % of control; (dose: 18.0 mg/kg/injection, schedule: Q04DX003 (ip), vehicle: Klucel (hydroxypropylcellulose) (HPC)) 476 % of control; (dose: 18.0 mg/kg/injection, schedule: Q04DX003 (ip), vehicle: saline) 548 % of control; (dose: 22.08 mg/kg/injection, schedule: Q04DX003 (ip), vehicle: other) 490 % of control; (dose: 27.0 mg/kg/injection, schedule: Q04DX003 (ip), vehicle: Klucel (hydroxypropylcellulose) (HPC)) 535 % of control; (dose: 27.0 mg/kg/injection, schedule: Q04DX003 (ip), vehicle: saline) 550 % of control and 222 % of control. Moreover, the T/C is, setting by setting: (dose: 30.0 mg/kg/injection, schedule: Q04DX003 (ip), vehicle: Klucel (hydroxypropylcellulose) (HPC)) 242 % of control; (dose: 34.6 mg/kg/injection, schedule: Q04DX003 (ip), vehicle: other) 491 % of control; (dose: 40.0 mg/kg/injection, schedule: Q04DX003 (ip), vehicle: saline) 550 % of control; (dose: 40.5 mg/kg/injection, schedule: Q04DX003 (ip), vehicle: Klucel (hydroxypropylcellulose) (HPC)) 535 % of control; (dose: 40.5 mg/kg/injection, schedule: Q04DX003 (ip), vehicle: saline) 300 % of control; (dose: 60.0 mg/kg/injection, schedule: Q04DX003 (ip), vehicle: saline) 202 % of control.
Regarding `FC(F)(F)c1ccc2c(c1)N(CCCN1CCN(CCN3CCOCC3)CC1)c1ccccc1S2`, the T/C runs as follows: (dose: 12.5 mg/kg/injection, schedule: Q04DX003 (ip), vehicle: saline) 99 % of control and 100 % of control; (dose: 25.0 mg/kg/injection, schedule: Q04DX003 (ip), vehicle: saline) 86 % of control and 99 % of control; (dose: 50.0 mg/kg/injection, schedule: Q04DX003 (ip), vehicle: saline) 104 % of control and 112 % of control.
`COC(=O)/C(C=Nc1ccccc1)=C(/C)O`: the T/C is, setting by setting: (dose: 50.0 mg/kg/injection, schedule: Q01DX009 (ip), vehicle: Klucel (hydroxypropylcellulose) (HPC)) 112 % of control; (dose: 100.0 mg/kg/injection, schedule: Q01DX009 (ip), vehicle: Klucel (hydroxypropylcellulose) (HPC)) 103 % of control; (dose: 200.0 mg/kg/injection, schedule: Q01DX009 (ip), vehicle: Klucel (hydroxypropylcellulose) (HPC)) 108 % of control.
As for `CC[C@@]1(O)C(=O)OCc2c1cc1n(c2=O)Cc2cc3ccccc3nc2-1`, the T/C reads like this: (dose: 0.8 mg/kg/injection, schedule: Q01DX009 (ip), vehicle: saline with Tween-80) 170 % of control; (dose: 1.5 mg/kg/injection, schedule: Q01DX009 (ip), vehicle: saline with Tween-80) 195 % of control; (dose: 2.5 mg/kg/injection, schedule: Q04DX003 (ip), vehicle: saline with Tween-80) 161 % of control; (dose: 3.0 mg/kg/injection, schedule: Q01DX009 (ip), vehicle: saline with Tween-80) 183 % of control; (dose: 3.75 mg/kg/injection, schedule: Q04DX003 (ip), vehicle: saline with Tween-80) 176 % of control; (dose: 4.0 mg/kg/injection, schedule: Q04DX003 (ip), vehicle: saline with Tween-80) 200 % of control. The T/C (dose: 6.0 mg/kg/injection, schedule: Q04DX003 (ip), vehicle: saline with Tween-80) is 233 % of control and the T/C (dose: 9.0 mg/kg/injection, schedule: Q04DX003 (ip), vehicle: saline with Tween-80) is 250 % of control.
As to `COC(=O)CC(N)C(=O)OC` (centres undefined), the T/C under setting [1] was 102 % of control, the T/C under setting [2] was 110 % of control and the T/C under setting [3] was 103 % of control.
In the case of `CC(=N\[O-])/C(C)=N/O.CC(=N\[O-])/C(C)=N/O.CCCc1ccncc1.[Cl-].[Cl-].[Rh+3]`, the T/C is, setting by setting: (dose: 12.5 mg/kg/injection, schedule: Q01DX009 (ip), vehicle: saline) 100 % of control; under setting [1], 102 % of control; under setting [2], 105 % of control; under setting [3], 102 % of control.
In the case of `CCN(CC)c1cc(=S)c2c(ccc3ccccc32)o1`, the T/C reads like this: (dose: 50.0 mg/kg/injection, schedule: Q01DX009 (ip), vehicle: saline with Tween-80) 100 % of control; under setting [4], 106 % of control; under setting [5], 103 % of control.
`CCCCCCCCCCC(O)CN1CCN(c2ccc(C)cc2)CC1` (centres undefined): the T/C by setting is: under setting [4], 100 % of control; (dose: 100.0 mg/kg/injection, schedule: Q04DX003 (ip), vehicle: saline sonified) 100 % of control; (dose: 176.0 mg/kg/injection, schedule: Q04DX003 (ip), vehicle: saline with Tween-80) 90 % of control; under setting [5], 100 % of control; (dose: 200.0 mg/kg/injection, schedule: Q04DX003 (ip), vehicle: saline sonified) 115 % of control; (dose: 264.0 mg/kg/injection, schedule: Q04DX003 (ip), vehicle: saline with Tween-80) 90 % of control. The T/C (dose: 400.0 mg/kg/injection, schedule: Q01DX009 (ip), vehicle: saline with Tween-80) is 90 % of control.
